Test results from patent US20260115205A1, “ON DEMAND FEMALE CONTRACEPTIVE” (priority 2021, published 2026).
“And” between values parts separate entries of the source, which are not always exact repeats. Equal entries are not always repeated. Where two headings read alike, the source gives them in different places.

Experiments:
[1] = tested on: normal menstruating women; assay: Pilot study of MEL 15 mg for 5 days in 3 normal menstruating women; assay type: in vivo, human
Experimental: A pilot study was performed using MEL 15 mg for 5 days in 3 normal menstruating women with a control no treatment but monitored cycle and a treatment cycle. Treatment was initiated when the participant was within one day of anticipated LH surge based on the control cycle.

[2] = cited from earlier work
[3] = tested on: women; settings: cited from earlier work; for serious adverse effects/events: general statement
[4] = tested on: women; settings: emergency contraception; cited from earlier work
[5] = 15 mg, 12 week rheumatoid arthritis placebo controlled trial, Mobic label
[6] = oral 15 mg for 5 days in normal women
[7] = 1.5 mg single dose, n=1359 women, Plan B One Step label

**Q.** What does the source list for Cc1cnc(NC(=O)C2=C(O)c3ccccc3S(=O)(=O)N2C)s1 [Meloxicam, meloxicam]?
**A.** effect on the LH surge dynamics [1]: no effect; time to steady state concentration ([2]; 15 mg daily): three to five; time of peak serum levels ([2]; depending upon food intake): five or six; enzyme principally metabolizing ([2]; in vivo): CYP2C9; incidence of adverse events ([3]; 15 mg taken daily for 18 days): 33.7%; serious adverse events ([3]; 15 mg taken daily for 18 days): no serious adverse events reported; abdominal pain [3, 5]: 2.6%; dizziness [3, 5]: 3.8%; dyspepsia [3, 5]: 4.5%; edema [3, 5]: 4.5%; headache [3, 5]: 8.3%; nausea [3, 5]: 3.8%; skin rash [3, 5]: 0.6%; serious adverse effects/events [3]: rare; adverse events [3, 6]: 27.3%; bloating [3, 6]: 4.5%; hot flushes [3, 6]: 9.0%; low abdominal pain [3, 6]: 13.6%

**Q.** Which “preventing pregnancy as interval from unprotected intercourse to use increases” value [4] does the source give for CC(=O)O[C@]1(C(C)=O)CC[C@H]2[C@@H]3CCC4=CC(=O)CCC4=C3[C@@H](c3ccc(N(C)C)cc3)C[C@@]21C [ulipristal acetate] here?
**A.** The value was “superior to LNG”.

**Q.** For C#C[C@]1(O)CC[C@H]2[C@@H]3CCC4=CC(=O)CC[C@@H]4[C@H]3CC[C@@]21CC [Levonorgestrel, levonorgestrel], which “mean peak blood level” value ([2]; 1.5 mg, immunoassay methodology) is on record?
**A.** Its value is 18 ng/mL.

**Q.** What about the “absorption from the gastrointestinal tract” value ([2]; in vivo) of the same compound?
**A.** Its value is “almost completely absorbed”.

**Q.** What about the enzyme principally metabolizing ([2]; in vivo) of the same compound?
**A.** The enzyme principally metabolizing was “CYP3A4”.

**Q.** And the estimated serum half-life ([2]; in vivo)?
**A.** Its estimated serum half-life is 27.5 h.

**Q.** What about the “mean peak serum level” value ([2]; two different laboratories, liquid chromatography and tandem mass spectrometry) of the same compound?
**A.** The value was 18.3 ng/mL and 10.2 ng/mL.

**Q.** And the breast tenderness [3, 7]?
**A.** The breast tenderness was 8.2%.

**Q.** What about the “delay of menses >7 days” value [3, 7] of the same compound?
**A.** The value was 4.5%.

**Q.** What about the dizziness [3, 7] of the same compound?
**A.** The dizziness was 9.6%.

**Q.** What about the fatigue [3, 7] of the same compound?
**A.** The fatigue was 13.3%.

**Q.** What about the headache [3, 7] of the same compound?
**A.** The headache was 10.3%.

**Q.** What about the heavy menstrual bleeding [3, 7] of the same compound?
**A.** Its heavy menstrual bleeding is 30.9%.

**Q.** And the lower abdominal pain [3, 7]?
**A.** The lower abdominal pain was 13.3%.

**Q.** And the nausea [3, 7]?
**A.** The nausea was 13.7%.

**Q.** What about the serious adverse effects/events ([3]; listed as LNG) of the same compound?
**A.** Its serious adverse effects/events is “have not been reported”.
